Reference: patent US20140315956A1, “SMALL MOLECULE INHIBITORS OF IL-6 AND USES THEREOF” (NATIONWIDE CHILDREN'S HOSPITAL, priority 2011, published 2014)
Entries after “also recorded” stand apart in the source; their conditions may differ.

What was measured:
[1] = system: Stat3 phosphorylation (p-Tyr705) induced by IL-6 in LNCaP prostate cancer cells; assay: IL-6 induced Stat3 phosphorylation in LNCaP cells, Western blot; format: cell-based; conditions: IL-6 12.5 ng/ml 30 min, Western blot
Protocol: LNCaP prostate cancer cells were acquired from American Type Culture Collection. Cells were maintained in RPMI 1640 medium, 1× with 4.5 g/L L-glutamine, supplemented with 10% FBS, 100 U/ml penicillin and […] streptomycin (Invitrogen), in a humidified atmosphere of 5% CO2 at 37° C.
LNCaP prostate cancer cells were seeded in T75 flasks, grown to 50% confluence and serum-starved the following night. The cells were left untreated or were treated with MDL-A (100-400 μM), 1, 2 (5-40 μM) or DMSO in the absence of FBS. After 4 hours, the cells were stimulated with 12.5 ng/ml IL-6 (Cell Signaling Technology). The cells were then harvested at 30 minutes and washed with PBS and lysed in cold M-PER lysis buffer (Pierce) containing protease inhibitors (Sigma) and phosphatase inhibitors (Roche). Lysates were centrifuged at 14,000 rpm for 15 minutes at 4° C. and supernatants were collected and stored at −20° C. until further use.
Cell lysates were assayed for their protein concentrations using the Bradford protein assay reagent (Pierce), using BSA (Fisher Scientific) as the standard. Lysate samples were adjusted for the same protein concentration, approximately 5 μg of sample protein was loaded into each of the appropriate lanes. Protein samples were separated by SDS-PAGE and electrotransferred to PVDF membranes. The membranes were washed and blocked with 5% BSA in TBST (60 mM Tris-base, 120 mM NaCl, 0.1% Tween-20) for at least one hour and incubated with anti-phospho-STAT3 (p-Tyr705) antibody, anti-STAT3 antibody or anti-GAPDH antibody (all from Cell Signaling Technology) in 5% BSA in TBST overnight at 4° C. Blots were then washed three times in TBST and incubated with a horseradish peroxidase-conjugated goat anti-rabbit IgG secondary antibody (Cell Signaling Technology) in 5% BSA in TBST for 1 hour at room temperature. The bound antibody was detected using Enhanced Chemiluminescence detection reagents (Pierce) according to the manufacturer's instructions and chemiluminescence visualized using ECL Hyperfilm (Amersham).

[2] = system: IL-6-dependent murine hepatoma cell line MH60; conditions: Omura and coworkers; cited from earlier work
GP130 [3] = biological target: T1, GP130 (Homo sapiens, UniProt P40189); conditions: reported by Saleh et al.; read-out: GP130 binding affinity KD; cited from earlier work
T1 sequence (P40189 23-918): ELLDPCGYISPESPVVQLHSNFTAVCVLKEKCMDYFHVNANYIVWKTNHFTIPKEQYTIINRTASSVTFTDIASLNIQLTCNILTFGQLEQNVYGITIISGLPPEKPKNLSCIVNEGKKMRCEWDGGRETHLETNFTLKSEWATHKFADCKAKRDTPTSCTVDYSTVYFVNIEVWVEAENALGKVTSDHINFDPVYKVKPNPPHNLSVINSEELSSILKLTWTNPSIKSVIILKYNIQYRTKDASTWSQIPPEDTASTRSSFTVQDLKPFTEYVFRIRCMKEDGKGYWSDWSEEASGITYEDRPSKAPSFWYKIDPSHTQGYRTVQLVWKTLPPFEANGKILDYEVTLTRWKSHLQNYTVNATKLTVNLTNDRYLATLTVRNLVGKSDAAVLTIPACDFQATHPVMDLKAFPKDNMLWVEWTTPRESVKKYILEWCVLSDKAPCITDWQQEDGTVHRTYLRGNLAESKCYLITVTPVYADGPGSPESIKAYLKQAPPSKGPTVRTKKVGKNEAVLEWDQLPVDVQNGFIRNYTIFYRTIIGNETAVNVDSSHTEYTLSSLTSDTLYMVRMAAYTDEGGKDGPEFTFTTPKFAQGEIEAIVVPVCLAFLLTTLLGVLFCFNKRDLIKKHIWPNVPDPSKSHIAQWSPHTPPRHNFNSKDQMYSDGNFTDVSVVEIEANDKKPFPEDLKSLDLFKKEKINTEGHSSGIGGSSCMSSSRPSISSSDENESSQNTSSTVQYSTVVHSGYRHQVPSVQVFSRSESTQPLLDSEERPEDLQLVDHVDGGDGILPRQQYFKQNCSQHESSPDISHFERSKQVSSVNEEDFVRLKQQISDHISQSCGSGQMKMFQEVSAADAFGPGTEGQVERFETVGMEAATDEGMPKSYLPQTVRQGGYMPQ

[4] = system: IL-6-independent MH60 cells; conditions: Omura and coworkers; cited from earlier work
[5] = system: IL-6-dependent STAT3 tyrosine phosphorylation in HepG2 cells; conditions: Saleh and coworkers; cited from earlier work
GP130 [6] = biological target: T1, GP130; assay: Literature binding of madindoline A to GP130; conditions: compared with the docking free energy
Source text: Several synthetic approaches to the preparation of the natural product have been reported (ref. 22 and references therein), but due to the length and complexity of the syntheses cannot be applied economically in a pharmaceutical process. A structure-based approach to the synthesis of madindoline A analogues has not yet been reported.

Which “inhibition of Stat3 phosphorylation induced by IL6” value [1] does the source give for `CCCCC1=C(C)C(=O)[C@@](C)(CN2c3ccccc3[C@]3(O)CCO[C@H]23)C1=O` [MDL-A, (+)-Madindoline A, reference compound] here?
Its value is “inhibit Stat3 phosphorylation; also recorded: dose dependent inhibition”.

What about the “growth of IL-6-dependent MH60 cells” value [2] of the same compound?
The value was “specifically inhibited the growth”.

What about the Kd (GP130 [3]) of the same compound?
The Kd was 288 µM.

And the “growth of IL-6-independent MH60 cells” value [4]?
The value was “unaffected”.

And the “IL-6-dependent STAT3 tyrosine phosphorylation” value [5]?
Its value is “inhibits IL-6-dependent STAT3 tyrosine phosphorylation”.

What about the “experimental binding free energy” value (GP130 [6]) of the same compound?
Its value is -5.0 kcal/mol.
